Test results from patent publication US9980967B1, “Method for overcoming drug resistance of EGFR mutation and cancerous stemness of human non-small cell lung carcinoma” (NATIONAL CHIAO TUNG UNIVERSITY, priority 2017, dated 2018).

Columns and labels:
Type in all cases: cell-based, human
PLC26 cells [1] = assay: MTT cell viability assay in PLC26 cells; details: 0~40 μM for 24 hours, compared with Gefitinib
Experimental: (§1) After treatment, the cells were re-cultured in fresh medium for 2 days. The cell viability was analyzed by MTT assays. The results were obtained from three independent experiments and the bar represents the mean±S.E.M. ***p<0.001 indicates significant difference between gefitinib and SP101 treated samples.
(§2) A549 (ATCC number: CCL-185) was a non-small cell lung carcinoma cell line which expressed wild type EGFR and with K-Ras mutation (G12S). H1975 (ATCC number: CRL-5908) was a non-small cell lung carcinoma cell line which expressed EGFR L858R/T790M mutation. Oct4 and Nanog overexpression in A549-ON presented the properties of cancer stem-like cells, as well as epithelial-mesenchymal transdifferentiation. PLC26 was lung cancer cells that separated from pleural effusion of a clinical lung cancer patient (IRB number: 103-011-E). A549-ON cells were cultured in DMEM medium. A549 and H1975 cells were maintained in RPMI-1640 medium. PLC26 cells were maintained in LHC-9 medium. […]
We have further investigated the effect of SP101 in PLC26 lung cancer cells separated from the pleural effusion of a clinical lung cancer patient. To compare the cell viability of SP101 and Gefitinib in PLC26 cells, the cells were treated with 0˜40 μM SP101 or Gefitinib for 24 hours, and analyzed by MTT assays. […] The apoptosis levels of SP101 in PLC26 cells were analyzed by Annexin V and PI staining. […]

[2] = tested on: H1975 cells with EGFR (T790M) mutation; assay: MTT cell viability assay in H1975 cells; details: 0~40 μM for 24 hours, re-cultured 2 days, compared with Gefitinib
Source text: A549 (ATCC number: CCL-185) was a non-small cell lung carcinoma cell line which expressed wild type EGFR and with K-Ras mutation (G12S). H1975 (ATCC number: CRL-5908) was a non-small cell lung carcinoma cell line which expressed EGFR L858R/T790M mutation. Oct4 and Nanog overexpression in A549-ON presented the properties of cancer stem-like cells, as well as epithelial-mesenchymal transdifferentiation. PLC26 was lung cancer cells that separated from pleural effusion of a clinical lung cancer patient (IRB number: 103-011-E). A549-ON cells were cultured in DMEM medium. A549 and H1975 cells were maintained in RPMI-1640 medium. PLC26 cells were maintained in LHC-9 medium. DMEM and RPMI medium were supplemented with 10% fetal bovine serum (FBS), 100 units/ml penicillin, 100 μg/ml streptomycin and sodium bicarbonate. LHC-9 medium was supplemented with 5% FBS and 100 units/ml penicillin. These cells were cultured at 37° C. and 5% CO2 in a humidified incubator.
Please refer to FIG. 2. The H1975 cells were treated with 0˜40 μM of SP101 or Gefitinib for 24 hours. After treatment, the H1975 cells were re-cultured in fresh medium for 2 days. The cell viability was analyzed by MTT assays. The results were obtained from three independent experiments and the var represents the mean±S.E.M. ***p<0.001 indicates significant difference between Gefitinib and SP101 treated samples.

A549-ON cells [3] = assay: Annexin V/PI apoptosis flow cytometry in A549-ON cells; details: 30 μM
Experimental: At the end of treatment, apoptosis was measured by Annexin V-PI staining using flow cytometry analysis. The population of Annexin V+/PI− cells represents cells undergoing early apoptosis (low right), whereas the fraction of Annexin V+/PI+ cell are those undergoing late apoptosis (upper right). The representative flow data were shown from one of three separate experiments with similar findings.
The bar represents the mean±S.E.M. ***p<0.001 indicates significant difference between untreated and SP101 or Gefitinib treated samples.
We compared the apoptosis levels of SP101 and Gefitinib in cancer stem-like A549-ON cells by Annexin V and PI staining. Please refer to FIG. 19. […] Please refer to FIG. 20. The average of total apoptosis follows SP101 and Gefitinib in the A549-ON cells around 69.29% and 7.59%, respectively.

PLC26 cells [4] = assay: Annexin V/PI apoptosis flow cytometry in PLC26 cells; details: 30 μM for 24 hours
Experimental: At the end of treatment, apoptosis was measured by Annexin V-PI staining using flow cytometry analysis. The population of Annexin V+/PI− cells represents cells undergoing early apoptosis (low right), whereas the fraction of Annexin V+/PI+ cell are those undergoing late apoptosis (upper right).
We have further investigated the effect of SP101 in PLC26 lung cancer cells separated from the pleural effusion of a clinical lung cancer patient. To compare the cell viability of SP101 and Gefitinib in PLC26 cells, the cells were treated with 0˜40 μM SP101 or Gefitinib for 24 hours, and analyzed by MTT assays. Please refer to FIG. 21. […] The apoptosis levels of SP101 in PLC26 cells were analyzed by Annexin V and PI staining. The PLC26 cells were trypsinized and then incubated with propidium iodide (5 μl) and Annexin V-FITC (5 μl) at room temperature for 5 mins before flow cytometry. Please refer to FIG. 22.

A549-ON cells [5] = assay: MTT cell viability assay in A549-ON cells; details: 10~40 μM for 24 hours, concentration-dependent
Experimental: as §1, with “Gefitinib” for “gefitinib”
as §2, with “medium.” for “medium. PLC26 cells were maintained in LHC-9 medium.”
Please refer to FIG. 12. […] To compare the cell viability of SP101 and Gefitinib in K-Ras mutation-drug resistant A549 and A549-ON cell lines, the cells were treated with 0˜40 μM SP101 or Gefitinib for 24 hours, and analyzed by MTT assays. […] To determine the effect of SP101 and Gefitinib on the cell viability in cancer stem-like A549-ON cells, the cells were treated with 10˜40 μM SP101 or Gefitinib for 24 hours, and analyzed by MTT assays.

## CCCCCCCCCCCCOC(=O)CCC(=O)N1CCN(CCCOc2cc3c(Nc4ccc(F)c(Cl)c4)ncnc3cc2OC)CC1 [SP101, dodecyl 4-(4-(3-(4-(3-chloro-4-fluorophenylamino)-7-methoxyquinazolin-6-yloxy)propyl)piperazin-1-yl)-4-oxobutanoate]
PLC26 cells [1]
  reduction of cell viability: more effective on the reduction of cell viability than Gefitinib
[2]
  cell viability inhibition: significantly higher in the SP101 group than in the Gefitinib group
A549-ON cells [3]
  late apoptosis cells, compared with Gefitinib: induced more late apoptosis cells than Gefitinib
  levels of Annexin V+/PI− cells (early apoptosis) and Annexin V+/PI+ cells (late apoptosis): significantly increased
A549-ON cells [3]; early and late apoptosis, flow cytometry
  average of total apoptosis: around 69.29%
PLC26 cells [4]
  levels of Annexin V+/PI− cells (early apoptosis) and Annexin V+/PI+ cells (late apoptosis): significantly increased
A549-ON cells [5]
  cell viability: significantly reduced
